Test results from patent US20080299188A1, “CONTROLLED RELEASE DOSAGE FORMS COMBINING IMMEDIATE RELEASE AND SUSTAINTED RELEASE OF LOW-SOLUBILITY DRUG” (Pfizer Inc., priority 2007, published 2008).
Structures can show the parent of a compound that is named as a salt.

Tests used:
Type in all cases: physicochemical
[1] = microcentrifuge dissolution test in MFD solution; settings: during the initial ninety minutes
Description: Microcentrifuge dissolution tests were performed to evaluate the hydrochloride crystalline salt form of ziprasidone to verify that it was a solubility-improved form of ziprasidone. For this test, a sufficient amount of ziprasidone hydrochloride monohydrate was added to a microcentrifuge test tube so that the concentration of ziprasidone would have been 200 μgA/mL, if all of the ziprasidone had dissolved. The tests were run in duplicate. The tubes were placed in a 37° C. temperature-controlled chamber, and 1.8 mL MFD solution at pH 6.5 and 290 mOsm/kg was added to each respective tube. The samples were quickly mixed using a vortex mixer for about 60 seconds. The samples were centrifuged at 13,000 G at 37° C. for 1 minute prior to collecting a sample. The resulting supernatant solution was then sampled and diluted 1:5 (by volume) with methanol. Samples were analyzed by high-performance liquid chromatography (HPLC) at a UV absorbance of 315 nm using a Zorbax RxC8 Reliance column and a mobile phase consisting of 55% (50 mM potassium dihydrogen phosphate, pH 6.5)/45% acetonitrile. Drug concentration was calculated by comparing UV absorbance of samples to the absorbance of drug standards. The contents of each tube were mixed on the vortex mixer and allowed to stand undisturbed at 37° C. until the next sample was taken. Samples were collected at 4, 10, 20, 40, 90, and 1200 minutes following administration to the MFD solution.
A similar test was performed with the crystalline ziprasidone free base as a control, and a sufficient amount of material was added so that the concentration of compound would have been 200 μgA/mL, if all of the ziprasidone had dissolved.
The concentrations of ziprasidone obtained in these tests were used to determine the maximum dissolved concentration of ziprasidone (“MDC90”) and the area under the concentration-versus-time curve (“AUC90”) during the initial ninety minutes.

[2] = solubility in phosphate buffered saline (pH 6.5); settings: expressed as the free base
Description: An example of a drug having a crystalline highly soluble salt form is ziprasidone. Ziprasidone hydrochloride monohydrate has a solubility of about 10 μgA/mL (expressed as the free base) in phosphate buffered saline (pH 6.5), whereas the free base form has a solubility of less than about 0.2 μgA/mL under the same conditions. Thus, crystalline ziprasidone hydrochloride is a solubility-improved form relative to the crystalline free base form of drug.

[3] = in vitro membrane permeation test
Description: The ziprasidone coated crystals were evaluated in vitro using a membrane permeation test. An Accurel® PP 1E microporous polypropylene membrane was obtained from Membrana GmbH (Wuppertal, Germany). The membrane was washed in isopropyl alcohol and rinsed in methanol in a sonicating bath for 1 minute at ambient temperature, and then allowed to air dry at ambient temperature. The feed side of the membrane was then plasma-treated to render it hydrophilic by placing a sample of the membrane in a plasma chamber. The atmosphere of the plasma chamber was saturated with water vapor at a pressure of 550 mtorr. A plasma was then generated using radio frequency (RF) power inductively coupled into the chamber via annular electrodes at a power setting of 50 watts for 45 seconds. The contact angle of a drop of water placed on the surface of the plasma-treated membrane was about 40°. […]
To form the feed solution, a 1.39 mg sample of the coated crystals was weighed into the feed reservoir. […] Samples were then diluted in […] IPA and analyzed using HPLC. […]
The maximum flux of drug across the membrane (in units of mgA/cm^2-min) was determined by performing a least-squares fit to the data in Table 3 from 0 to 60 minutes to obtain the slope, multiplying the slope by the permeate volume (5 ml), and dividing by the membrane area (4.9 cm^2).

Row | AUC90 (area under the concentration-versus-time curve) [1] [min·µgA/mL] | MDC90 (maximum dissolved concentration of ziprasidone) [1] [µgA/mL] | solubility ([2]; listed as free base form) | AUC90 (area under the concentration-versus-time curve) ([1]; hydrochloride monohydrate) [min·µgA/mL] | MDC90 (maximum dissolved concentration of ziprasidone) ([1]; hydrochloride monohydrate) [µgA/mL] | solubility ([2]; hydrochloride monohydrate) | Concentration (permeate solution) ([3]; feed MFD solution 100 μgA/ml if all dissolved, permeate 60 wt % decanol in decane, 37° C., time 0 min) [μgA/ml] | Initial Flux of Ziprasidone ([3]; least-squares fit of Table 3 data from 0 to 60 minutes, permeate volume 5 ml, membrane area 4.9 cm^2) [µgA/cm²·min] | Structure (SMILES)
1 | 120 | 2 | less than 0.2 μgA/mL |  |  |  |  |  | O=C1Cc2cc(CCN3CCN(c4nsc5ccccc45)CC3)c(Cl)cc2N1 [Ziprasidone Free Base, ziprasidone]
2 |  |  |  | 1700 | 22 | about 10 μgA/mL | 0.5 | 0.16 | O=C1Cc2cc(CCN3CCN(c4nsc5ccccc45)CC3)c(Cl)cc2N1 [Ziprasidone hydrochloride monohydrate, ziprasidone hydrochloride monohydrate]
